{"source": "paper PMC5578959", "about": "“Selective LRRK2 kinase inhibition reduces phosphorylation of endogenous Rab10 and Rab12 in human peripheral mononuclear blood cells” (Scientific Reports, 2017)", "key": {"LRRK2": {"tested_on": "LRRK2", "experiment": "Global proteome analysis, immune stimulated human PBMCs", "assay_type": "cell-based", "conditions": "100 nM, 24 hrs, not statistically significant (q-value: 0.08)", "experimental": "(§1) Freshly isolated PBMCs were plated at a density ranging from 7–20 × 10^6 cells in 10 cm petri dishes (Costar 3262) in RPMI-1640 media (Gibco 61870–010) supplemented with 10% non-heat inactivated FBS, 5 ml Antimycotic (Sigma cat:5965) with or without an immune stimulation cocktail consisting of 400 nM phorbol 12-myristate 13-acetate (PMA) and 100 ng/ml interferon-γ (INF-γ). After 48 hrs in culture the cultures were added a fifth of the volume media containing 5x the final concentration of the respective LRRK2 inhibitor with or without PMA and interferon-γ. […] Approximately, 400 µg of protein from each individual donor was needed in order to run the full PBMC stimulation and inhibition study with subsequent global proteome and phosphoproteome (PhosphoScout®) analyses. […]\n(§2) Upon the respective treatments cells were washed with cold PBS, snap-frozen in liquid N2 and shipped to Evotec on dry-ice. […] Cell lysis was performed in ice-cold lysis buffer (8 M urea, 50 mM Tris pH 8.2, 10 mM sodium pyrophosphate, 5 mM EDTA, 5 mM EGTA, 10 mM sodium fluoride, 10 mM β-glycerophosphate, 10 mM sodium orthovanadate, phosphatase inhibitor cocktail 2 and 3 (Sigma, 1:100 (v/v)) and Complete protease inhibitor cocktail tablets (Roche). Cell extracts were sonicated on ice and the cell debris was removed by centrifugation before protein concentrations were determined (Bradford, BioRad). […]"}, "[1]": {"tested_on": "Regulator of telomere elongation helicase 1 (RTEL1)", "experiment": "Global proteome analysis, immune stimulated human PBMCs", "assay_type": "cell-based", "conditions": "100 nM, 24 hrs", "experimental": "as §1, §2"}, "MARK3,MARK4,QIK": {"tested_on": "MARK3,MARK4,QIK", "experiment": "KiNativ profiling in human PBMCs", "assay_type": "binding", "conditions": "Lys1", "method_in_brief": "(§3)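 PBMCs treated in live-cell format, compound 1 µM / 0.1 µM; kinase profiling by KiNativ methodology.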"}, "JAK2 domain2": {"tested_on": "T1, JAK2 domain2", "T1 construct": "JAK2 domain2; purchased ActivX Technologies (KiNativ)", "experiment": "KiNativ profiling in human PBMCs", "assay_type": "binding", "conditions": "Activation Loop", "method_in_brief": "as §3"}, "total LRRK2": {"tested_on": "T2, total LRRK2", "T2 construct": "human primary cells expressing endogenous levels of LRRK2; endogenous in cells; host or cells: human PBMCs from healthy donors", "experiment": "Western Blot, cultured immune stimulated human PBMCs", "assay_type": "cell-based", "conditions": "100 nM; 24hr; PMA/INF-γ stimulated PBMCs, 3 DIV"}, "RAB10": {"tested_on": "RAB10", "experiment": "Phosphoproteomic analysis, immune stimulated human PBMCs", "assay_type": "cell-based", "conditions": "100 nM, 24 hrs", "experimental": "as §1, §2"}, "RAB12": {"tested_on": "RAB12", "experiment": "Phosphoproteomic analysis, immune stimulated human PBMCs", "assay_type": "cell-based", "conditions": "100 nM, 24 hrs", "experimental": "as §1, §2"}, "COT": {"tested_on": "T3, COT", "T3 construct": "purchased ActivX Technologies (KiNativ)", "experiment": "KiNativ profiling in human PBMCs", "assay_type": "binding", "conditions": "ATP Loop"}, "TGFbR2": {"tested_on": "T4, TGFbR2", "T4 construct": "purchased ActivX Technologies (KiNativ)", "experiment": "KiNativ profiling in human PBMCs", "assay_type": "binding", "conditions": "Lys2"}, "PKD3": {"tested_on": "T5, PKD3", "T5 construct": "purchased ActivX Technologies (KiNativ)", "experiment": "KiNativ profiling in human PBMCs", "assay_type": "binding"}, "ITK": {"tested_on": "T6, ITK", "T6 construct": "purchased ActivX Technologies (KiNativ)", "experiment": "KiNativ profiling in human PBMCs", "assay_type": "binding", "conditions": "Activation Loop"}, "CK2a1": {"tested_on": "T7, CK2a1", "T7 construct": "purchased ActivX Technologies (KiNativ)", "experiment": "KiNativ profiling in human PBMCs", "assay_type": "binding", "conditions": "Protein Kinase Domain"}, "MAP2K2": {"tested_on": "T8, MAP2K2", "T8 construct": "purchased ActivX Technologies (KiNativ)", "experiment": "KiNativ profiling in human PBMCs", "assay_type": "binding", "conditions": "Lys2"}, "AMPKa1,AMPKa2": {"tested_on": "AMPKa1,AMPKa2", "experiment": "KiNativ profiling in human PBMCs", "assay_type": "binding", "method_in_brief": "as §3"}, "p70S6Kb": {"tested_on": "T9, p70S6Kb", "T9 construct": "purchased ActivX Technologies (KiNativ)", "experiment": "KiNativ profiling in human PBMCs", "assay_type": "binding", "conditions": "Lys2"}, "PI4KA, PI4KAP2": {"tested_on": "PI4KA, PI4KAP2", "experiment": "KiNativ profiling in human PBMCs", "assay_type": "binding", "conditions": "ATP"}, "PKD1, PKD2": {"tested_on": "PKD1, PKD2", "experiment": "KiNativ profiling in human PBMCs", "assay_type": "binding", "conditions": "Lys2"}}, "data": [{"smiles": "Cc1cccc(-c2cc(Nc3ccn(C)n3)nc3[nH]cc(C#N)c23)c1", "note": "[Lu AF58786]", "values": [{"measurement": "LRRK2 down-regulated on the protein level", "setting": "LRRK2", "value": "approximately 1.7 fold"}, {"measurement": "RTEL1 expression level downregulated", "setting": "[1]", "value": 2, "unit": "fold"}, {"measurement": "Inhibition", "setting": "MARK3,MARK4,QIK; 0.1µM", "value": 3.0, "unit": "%"}, {"measurement": "Inhibition", "setting": "MARK3,MARK4,QIK; 1µM", "value": 5.7, "unit": "%"}, {"measurement": "Inhibition", "setting": "JAK2 domain2; 0.1µM", "value": 16.1, "unit": "%"}, {"measurement": "Inhibition", "setting": "JAK2 domain2; 1µM", "value": -3.5, "unit": "%"}, {"measurement": "total LRRK2 protein levels", "setting": "total LRRK2", "value": "significantly lowers"}, {"measurement": "reduced level of phosphorylation, Thr73 on Rab10", "setting": "RAB10", "value": "approximately 2 fold"}, {"measurement": "reduced level of phosphorylation, Ser106 on Rab12", "setting": "RAB12", "value": "approximately 2 fold"}]}, {"smiles": "Cn1cc(-c2c[nH]c3ncnc(N4CCOCC4)c23)cc1C#N", "note": "[PFE-360]", "values": [{"measurement": "% Inhibition", "setting": "COT; 0.1µM", "value": 26.3, "unit": "%"}, {"measurement": "% Inhibition", "setting": "COT; 1µM", "value": 7.7, "unit": "%"}, {"measurement": "% Inhibition", "setting": "TGFbR2; 0.1µM", "value": -5.4, "unit": "%"}, {"measurement": "% Inhibition", "setting": "TGFbR2; 1µM", "value": -16.3, "unit": "%"}, {"measurement": "% Inhibition", "setting": "PKD3; 0.1µM, Lys1", "value": 1.2, "unit": "%"}, {"measurement": "% Inhibition", "setting": "PKD3; 0.1µM, Lys2", "value": 17.6, "unit": "%"}, {"measurement": "% Inhibition", "setting": "PKD3; 1µM, Lys1", "value": -10.7, "unit": "%"}, {"measurement": "% Inhibition", "setting": "PKD3; 1µM, Lys2", "value": -1.1, "unit": "%"}, {"measurement": "% Inhibition", "setting": "ITK; 0.1µM", "value": 3.5, "unit": "%"}, {"measurement": "% Inhibition", "setting": "ITK; 1µM", "value": -4.7, "unit": "%"}, {"measurement": "% Inhibition", "setting": "CK2a1; 0.1µM", "value": -27.7, "unit": "%"}, {"measurement": "% Inhibition", "setting": "CK2a1; 1µM", "value": -26.5, "unit": "%"}, {"measurement": "% Inhibition", "setting": "MAP2K2; 0.1µM", "value": -11.4, "unit": "%"}, {"measurement": "% Inhibition", "setting": "MAP2K2; 1µM", "value": 20.4, "unit": "%"}, {"measurement": "% Inhibition", "setting": "AMPKa1,AMPKa2; 0.1µM, Lys1", "value": 0.8, "unit": "%"}, {"measurement": "% Inhibition", "setting": "AMPKa1,AMPKa2; 0.1µM, Lys2", "value": -17.7, "unit": "%"}, {"measurement": "% Inhibition", "setting": "AMPKa1,AMPKa2; 1µM, Lys1", "value": -2.7, "unit": "%"}, {"measurement": "% Inhibition", "setting": "AMPKa1,AMPKa2; 1µM, Lys2", "value": 7.4, "unit": "%"}, {"measurement": "% Inhibition", "setting": "p70S6Kb; 0.1µM", "value": -6.9, "unit": "%"}, {"measurement": "% Inhibition", "setting": "p70S6Kb; 1µM", "value": 10.8, "unit": "%"}, {"measurement": "% Inhibition", "setting": "PI4KA, PI4KAP2; 0.1µM", "value": -6, "unit": "%"}, {"measurement": "% Inhibition", "setting": "PI4KA, PI4KAP2; 1µM", "value": 4.4, "unit": "%"}, {"measurement": "% Inhibition", "setting": "PKD1, PKD2; 0.1µM", "value": 13.1, "unit": "%"}, {"measurement": "% Inhibition", "setting": "PKD1, PKD2; 1µM", "value": -5.9, "unit": "%"}]}]}
